Test results: PubChem BioAssay (NCI)
Several values for one entry are separate records, joined by “and”; a condition that tells them apart may be missing. Equal entries are not always repeated.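 Growth conditions: 96-well plates. Treatment: test compound, 48 hours, 5 concentrations. Analysis: linear interpolation between bracketing concentrations; unreached endpoints set to highest concentration. GI50 = concentration required for 50% inhibition of growth. TGI marks complete inhibition of growth.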

Key:
Assay in all cases: growth of human tumour cells (NCI), 48 h
HOP-62 NSCLC = tested on: HOP-62 NSCLC
IGROV1 ovarian = tested on: IGROV1 ovarian
TK-10 renal = tested on: TK-10 renal
SK-MEL-28 melanoma = tested on: SK-MEL-28 melanoma
MDA-N = tested on: MDA-N
DU-145 prostate = tested on: DU-145 prostate
T-47D breast = tested on: T-47D breast
SR leukemia = tested on: SR leukemia
NCI-H522 lung = tested on: NCI-H522 lung
SF-539 CNS = tested on: SF-539 CNS
LOX IMVI melanoma = tested on: LOX IMVI melanoma
HS 578T breast = tested on: HS 578T breast
NCI-H23 lung = tested on: NCI-H23 lung
SW-620 colon = tested on: SW-620 colon
SN12C renal = tested on: SN12C renal
MDA-MB-435 = tested on: MDA-MB-435
CCRF-CEM leukemia = tested on: CCRF-CEM leukemia
SK-MEL-5 melanoma = tested on: SK-MEL-5 melanoma
HCT-15 colon = tested on: HCT-15 colon

`O=C(Cn1c(=O)oc2ccc(C(=O)c3ccc(F)cc3)cc21)c1ccccc1` gave a TGI (HOP-62 NSCLC) of over 100 µM, a TGI (IGROV1 ovarian) of over 100 µM and a TGI (TK-10 renal) of over 100 µM. It also gave a TGI (SK-MEL-28 melanoma) of over 100 µM, a TGI (MDA-N) of over 100 µM and a TGI (DU-145 prostate) of over 100 µM. The TGI (T-47D breast) was over 100 µM, the TGI (SR leukemia) was over 100 µM and the TGI (NCI-H522 lung) was over 100 µM. The TGI (SF-539 CNS) was over 100 µM, the TGI (LOX IMVI melanoma) was over 100 µM and the TGI (HS 578T breast) was over 100 µM. It also gave a TGI (NCI-H23 lung) of over 100 µM, a TGI (SW-620 colon) of over 100 µM and a TGI (SN12C renal) of over 100 µM. It also gave a TGI (MDA-MB-435) of over 100 µM, a TGI (CCRF-CEM leukemia) of over 100 µM and a TGI (SK-MEL-5 melanoma) of over 100 µM. The TGI (HCT-15 colon) was over 100 µM.
With `NC(=O)C(=CNC(=S)Nc1ccc(S(=O)(=O)Nc2ccccn2)cc1)C(N)=O` the TGI (HOP-62 NSCLC) was over 100 µM, the TGI (IGROV1 ovarian) was over 100 µM and the TGI (TK-10 renal) was over 100 µM. For the same compound, the TGI (SK-MEL-28 melanoma) was over 100 µM, the TGI (MDA-N) was over 100 µM and the TGI (DU-145 prostate) was over 100 µM. The TGI (T-47D breast) was over 100 µM, the TGI (SR leukemia) was over 100 µM and the TGI (NCI-H522 lung) was over 100 µM. For the same compound, the TGI (SF-539 CNS) was over 100 µM, the TGI (LOX IMVI melanoma) was over 100 µM and the TGI (HS 578T breast) was over 100 µM. The TGI (NCI-H23 lung) was over 100 µM, the TGI (SW-620 colon) was over 100 µM and the TGI (SN12C renal) was over 100 µM. The TGI (MDA-MB-435) was over 100 µM, the TGI (CCRF-CEM leukemia) was over 100 µM and the TGI (SK-MEL-5 melanoma) was over 100 µM. For the same compound, the TGI (HCT-15 colon) was over 100 µM.
In the case of `NC(N)=NS(=O)(=O)c1ccc(NNC(=O)c2cccc3c(=O)c4ccccc4[nH]c23)cc1`, the TGI (HOP-62 NSCLC) is reported as 73.5 µM, the TGI (IGROV1 ovarian) is reported as over 100 µM and the TGI (TK-10 renal) is reported as 94 µM. It also gave a TGI (SK-MEL-28 melanoma) of 65.9 µM, a TGI (MDA-N) of 60.9 µM and a TGI (DU-145 prostate) of over 100 µM. It also gave a TGI (T-47D breast) of 59.2 µM, a TGI (SR leukemia) of over 100 µM and a TGI (NCI-H522 lung) of 46.1 µM. It also gave a TGI (SF-539 CNS) of 58.7 µM, a TGI (LOX IMVI melanoma) of 47.7 µM and a TGI (HS 578T breast) of over 100 µM. It also gave a TGI (NCI-H23 lung) of 87 µM, a TGI (SW-620 colon) of over 100 µM and a TGI (SN12C renal) of over 100 µM. It also gave a TGI (MDA-MB-435) of 57.5 µM, a TGI (CCRF-CEM leukemia) of over 100 µM and a TGI (SK-MEL-5 melanoma) of 36.1 µM. For the same compound, the TGI (HCT-15 colon) was 50.5 µM.
`OC(Cc1ccc2ccccc2n1)(C(F)(F)Cl)C(F)(F)Cl` showed a TGI (HOP-62 NSCLC) of over 10 µM, a TGI (IGROV1 ovarian) of over 10 µM and a TGI (TK-10 renal) of over 10 µM. The TGI (SK-MEL-28 melanoma) was over 10 µM, the TGI (MDA-N) was over 10 µM and the TGI (DU-145 prostate) was over 10 µM. The TGI (T-47D breast) was over 10 µM, the TGI (SR leukemia) was over 10 µM and the TGI (NCI-H522 lung) was over 10 µM. For the same compound, the TGI (SF-539 CNS) was over 10 µM, the TGI (LOX IMVI melanoma) was over 10 µM and the TGI (HS 578T breast) was over 10 µM. It also gave a TGI (NCI-H23 lung) of over 10 µM, a TGI (SW-620 colon) of over 10 µM and a TGI (SN12C renal) of over 10 µM. For the same compound, the TGI (MDA-MB-435) was over 10 µM, the TGI (CCRF-CEM leukemia) was over 10 µM and the TGI (SK-MEL-5 melanoma) was over 10 µM. The TGI (HCT-15 colon) was over 10 µM.
Work on `N#Cc1ncn(CCO)c1N` yielded a TGI (HOP-62 NSCLC) of over 100 µM, a TGI (IGROV1 ovarian) of over 100 µM and a TGI (TK-10 renal) of over 100 µM. For the same compound, the TGI (SK-MEL-28 melanoma) was over 100 µM, the TGI (MDA-N) was over 100 µM and the TGI (DU-145 prostate) was over 100 µM. For the same compound, the TGI (T-47D breast) was over 100 µM, the TGI (SR leukemia) was over 100 µM and the TGI (NCI-H522 lung) was over 100 µM. For the same compound, the TGI (SF-539 CNS) was over 100 µM, the TGI (LOX IMVI melanoma) was over 100 µM and the TGI (HS 578T breast) was over 100 µM. It also gave a TGI (NCI-H23 lung) of over 100 µM, a TGI (SW-620 colon) of over 100 µM and a TGI (SN12C renal) of over 100 µM. It also gave a TGI (MDA-MB-435) of over 100 µM, a TGI (CCRF-CEM leukemia) of over 100 µM and a TGI (SK-MEL-5 melanoma) of over 100 µM. The TGI (HCT-15 colon) was over 100 µM.
In the case of `COc1cc(C(C[N+](=O)[O-])SC(C)=O)ccc1OCc1ccccc1` (stereo unspecified), the TGI (HOP-62 NSCLC) is reported as 14.3 µM, the TGI (IGROV1 ovarian) is reported as 7.36 µM and the TGI (TK-10 renal) is reported as 14.7 µM. It also gave a TGI (SK-MEL-28 melanoma) of 6.79 µM, a TGI (MDA-N) of 8.54 µM and a TGI (DU-145 prostate) of 27.1 µM. The TGI (T-47D breast) was 54.5 µM, the TGI (SR leukemia) was 4.86 µM and the TGI (NCI-H522 lung) was 13.9 µM. The TGI (SF-539 CNS) was 4.87 µM, the TGI (LOX IMVI melanoma) was 3.35 µM and the TGI (HS 578T breast) was 12.1 µM. For the same compound, the TGI (NCI-H23 lung) was 12.3 µM, the TGI (SW-620 colon) was 10.6 µM and the TGI (SN12C renal) was 15.7 µM. For the same compound, the TGI (MDA-MB-435) was 10 µM, the TGI (CCRF-CEM leukemia) was over 100 µM and the TGI (SK-MEL-5 melanoma) was 21.9 µM. It also gave a TGI (HCT-15 colon) of 9.11 µM.
For `CCc1cc2c(c3c1CCCC3)CC1(Cc3ccc(C(=O)OC)cc3C1)C2` (stereo unspecified), the TGI (HOP-62 NSCLC) was over 100 µM, the TGI (IGROV1 ovarian) was over 100 µM and the TGI (TK-10 renal) was over 100 µM. For the same compound, the TGI (SK-MEL-28 melanoma) was over 100 µM, the TGI (MDA-N) was over 100 µM and the TGI (DU-145 prostate) was over 100 µM. The TGI (T-47D breast) was over 100 µM, the TGI (SR leukemia) was 85.1 µM and the TGI (NCI-H522 lung) was over 100 µM. For the same compound, the TGI (SF-539 CNS) was over 100 µM, the TGI (LOX IMVI melanoma) was over 100 µM and the TGI (HS 578T breast) was over 100 µM. The TGI (NCI-H23 lung) was over 100 µM, the TGI (SW-620 colon) was over 100 µM and the TGI (SN12C renal) was over 100 µM. It also gave a TGI (MDA-MB-435) of over 100 µM, a TGI (CCRF-CEM leukemia) of 56 µM and a TGI (SK-MEL-5 melanoma) of over 100 µM. For the same compound, the TGI (HCT-15 colon) was over 100 µM.
Work on `c1ccc(-c2c3c(nc4c2CC[C@H]4NC2=NCCN2)[C@@H](NC2=NCCN2)CC3)cc1` yielded a TGI (HOP-62 NSCLC) of over 100 µM, a TGI (IGROV1 ovarian) of over 100 µM and a TGI (TK-10 renal) of over 100 µM. The TGI (SK-MEL-28 melanoma) was over 100 µM, the TGI (MDA-N) was over 100 µM and the TGI (DU-145 prostate) was over 100 µM. It also gave a TGI (T-47D breast) of over 100 µM, a TGI (SR leukemia) of over 100 µM and a TGI (NCI-H522 lung) of over 100 µM. For the same compound, the TGI (SF-539 CNS) was over 100 µM, the TGI (LOX IMVI melanoma) was over 100 µM and the TGI (HS 578T breast) was over 100 µM. For the same compound, the TGI (NCI-H23 lung) was over 100 µM, the TGI (SW-620 colon) was over 100 µM and the TGI (SN12C renal) was over 100 µM. For the same compound, the TGI (MDA-MB-435) was over 100 µM, the TGI (CCRF-CEM leukemia) was over 100 µM and the TGI (SK-MEL-5 melanoma) was over 100 µM. For the same compound, the TGI (HCT-15 colon) was over 100 µM.
Compound `CC(=O)OCC1OC(n2c(N)c(C#N)c(C)c(C#N)c2=S)C(OC(C)=O)C(OC(C)=O)C1OC(C)=O` (stereo unspecified) has a TGI (HOP-62 NSCLC) of over 100 µM, a TGI (IGROV1 ovarian) of over 100 µM and a TGI (TK-10 renal) of over 100 µM. It also gave a TGI (SK-MEL-28 melanoma) of over 100 µM, a TGI (MDA-N) of over 100 µM and a TGI (DU-145 prostate) of over 100 µM. For the same compound, the TGI (T-47D breast) was over 100 µM, the GI50 (SR leukemia) was 39.5 µM and > 100 µM and the TGI (SR leukemia) was over 100 µM. The TGI (NCI-H522 lung) was over 100 µM, the TGI (SF-539 CNS) was over 100 µM and the TGI (LOX IMVI melanoma) was over 100 µM. The TGI (HS 578T breast) was over 100 µM, the TGI (NCI-H23 lung) was over 100 µM and the TGI (SW-620 colon) was over 100 µM. For the same compound, the TGI (SN12C renal) was over 100 µM, the TGI (MDA-MB-435) was over 100 µM and the TGI (CCRF-CEM leukemia) was over 100 µM. For the same compound, the TGI (SK-MEL-5 melanoma) was over 100 µM and the TGI (HCT-15 colon) was over 100 µM.
`O=[N+]([O-])c1ccc(C2=NOC(c3ccc(Cl)cc3)N2C23CC4CC(CC(C4)C2)C3)cc1` (stereo unspecified) showed a TGI (HOP-62 NSCLC) of over 100 µM, a TGI (IGROV1 ovarian) of over 100 µM and a TGI (TK-10 renal) of over 100 µM. For the same compound, the TGI (SK-MEL-28 melanoma) was over 100 µM, the TGI (MDA-N) was over 100 µM and the TGI (DU-145 prostate) was over 100 µM. The TGI (T-47D breast) was over 100 µM, the TGI (SR leukemia) was over 100 µM and the TGI (NCI-H522 lung) was over 100 µM. It also gave a TGI (SF-539 CNS) of over 100 µM, a TGI (LOX IMVI melanoma) of over 100 µM and a TGI (HS 578T breast) of over 100 µM. It also gave a TGI (NCI-H23 lung) of over 100 µM, a TGI (SW-620 colon) of over 100 µM and a TGI (SN12C renal) of over 100 µM. The TGI (MDA-MB-435) was over 100 µM, the TGI (CCRF-CEM leukemia) was over 100 µM and the TGI (SK-MEL-5 melanoma) was over 100 µM. The TGI (HCT-15 colon) was over 100 µM.
